# In patent publication US7718688B2, “Nitrobenzindoles and their use in cancer therapy” (Auckland Uniservices Limited, priority 2004, dated 2010):
# Legend:
# [1] = One-electron reduction potential E(1) by pulse radiolysis; format: physicochemical; conditions: determined by pulse radiolysis
# [2] = system: SKOV3: human ovarian carcinoma cell line; assay: Proliferation IC50 assay, oxic/hypoxic, SKOV3; format: cell-based; conditions: Table 3; for IC50: Homo sapiens, SK-OV-3, 4 h exposure under aerobic conditions; for HCR (hypoxic cytotoxicity ratio) SKOV3: IC50(aerobic)/IC10(hypoxic)
# [3] = system: HT29: human colon cancer cell line; assay: Proliferation IC50 assay, oxic/hypoxic, HT29; format: cell-based; conditions: for IC50: Homo sapiens, HT-29, 4 h exposure under aerobic conditions; for IC50 / HCR (hypoxic cytotoxicity ratio) HT29: Table 3; for HCR (hypoxic cytotoxicity ratio) HT29: IC50(aerobic)/IC10(hypoxic)
# [4] = system: HT29 clonogens; assay: Clonogenic assay (C10), oxic/hypoxic, HT29; format: cell-based, human; conditions: for Clonogenic HCR HT29: C10(aerobic)/C10(hypoxic); for Clonogenic C10 HT29 Oxic: concentration to reduce HT29 clonogens to 10% of controls, 4 hr exposure under aerobic conditions
# [5] = Hypoxic metabolism with HT29 tumour S9 (HPLC); conditions: for k: rate of formation of compound of Formula II: 10 μM with tumour S9 (12 mg/mL protein), 37° C., pH 7.4, NADPH 1 mM, 2 h, products R3, 56, 55, 60
# Text: Metabolism of compounds of Formula I was investigated using S9 preparations from HT29 tumours grown as xenografts in CD-1 mice.
# [6] = Plasma pharmacokinetics after intravenous 36 in mice (LC/MS/MS); format: in vivo, CD-1 mice (nu/+ heterozygotes); conditions: CD-1 (nu/+ heterozygotes), mouse
# Method: The compounds were assayed in plasma, following precipitation of proteins with methanol, using an LC/MS/MS (triple quadrupole mass spectrometer).
SMILES,E(1): one-electron reduction potential [1] [mV],IC50 [2] [µM],HCR (hypoxic cytotoxicity ratio) SKOV3 [2],IC50 [3] [nM],HCR (hypoxic cytotoxicity ratio) HT29 [3],Clonogenic HCR HT29 [4],Clonogenic C10 HT29 Oxic [4] [µM],k: rate of formation of compound of Formula II ([5]; hypoxic) [µM/h],AUC for 90% kill of HT29 cells under hypoxic conditions ([4]; estimated from the clonogenic assay data in Table 3) [µM·min],"AUC ([6]; intravenous, 42.1 μmol/kg, 35 derived from 36, plasma, mice) [µM·h]","AUC ([6]; iv, 42.1 umol/kg, plasma, CD-1 mice, 36 i.v. 42.1 μmol/kg, 35 as metabolite of 36, mean) [µM·h]","clearance ([6]; iv, 42.1 umol/kg, plasma, CD-1 mice, 36 i.v. 42.1 μmol/kg, 35 as metabolite of 36, mean, read-out: Cl (clearance)) [mL/min/kg]","half-life ([6]; iv, 42.1 umol/kg, plasma, CD-1 mice, 36 i.v. 42.1 μmol/kg, 35 as metabolite of 36, mean, read-out: T1/2 (terminal half-life)) [min]","Vd ([6]; iv, 42.1 umol/kg, plasma, CD-1 mice, 36 i.v. 42.1 μmol/kg, 35 as metabolite of 36, mean, read-out: Vd (volume of distribution based on the terminal phase)) [L/kg]",melting point [°C],"HCR: Hypoxic cytotoxicity ratio for HT29 cell line ([3]; Table 5, as defined in Table 3)","formation of 60 under hypoxic conditions ([5]; 26 at 10 μM with S9, 2 h, hypoxic, HPLC)","formation of 60 under oxic conditions ([5]; 26 at 10 μM with S9, 2 h, oxic, HPLC)"
"CN(C)CCNS(=O)(=O)c1ccc2c3c(cc([N+](=O)[O-])c2c1)N(C(=O)c1cc2cc(OCCN(C)C)ccc2[nH]1)CC3CCl (stereo not drawn) [Compound 39, 1-(Chloromethyl)-3-{5-[2-(dimethylamino)ethoxy]indol-2-carbonyl}-N-[2-(dimethylamino)ethyl]-5-nitro-1,2-dihydro-3H-benzo[e]indole-7-sulfonamide]",−357 ± 8,0.83,130,730,110,55,6.2,–,–,–,–,–,–,–,–,–,–,–
"CN(C)CCOc1ccc2[nH]c(C(=O)N3CC(CCl)c4c3cc([N+](=O)[O-])c3ccc(C(N)=O)cc43)cc2c1 (stereo not drawn) [Compound 43, 1-(Chloromethyl)-3-{5-[2-(dimethylamino)ethoxy]indol-2-carbonyl}-5-nitro-1,2-dihydro-3H-benzo[e]indole-8-carboxamide]",−447 ± 9,3.4,34,2800,22,21.2,33,–,–,–,–,–,–,–,–,–,–,–
"CN(C)CCOc1ccc2[nH]c(C(=O)N3CC(CCl)c4c3cc([N+](=O)[O-])c3cc(C(N)=O)ccc43)cc2c1 (stereo not drawn) [Compound 16, 1-(Chloromethyl)-3-{5-[2-(dimethylamino)ethoxy]indol-2-carbonyl}-5-nitro-1,2-dihydro-3H-benzo[e]indole-7-carboxamide]",−422 ± 10,3.9,–,4100,–,>14,>25,1.48,–,–,–,–,–,–,–,–,–,–
"CN(C)CCOc1ccc2[nH]c(C(=O)N3CC(CCl)c4c3cc([N+](=O)[O-])c3cc(C#N)ccc43)cc2c1 (stereo not drawn) [Compound 22, 1-(Chloromethyl)-3-{5-[2-(dimethylamino)ethoxy]indol-2-carbonyl}-5-nitro-1,2-dihydro-3H-benzo[e]indole-7-carbonitrile]",−385 ± 8,0.81,–,700,–,–,–,1.27,–,–,–,–,–,–,–,–,–,–
"CN(C)CCOc1ccc2[nH]c(C(=O)N3CC(CCl)c4c3cc([N+](=O)[O-])c3ccccc43)cc2c1 (stereo not drawn) [Compound R2, reference compound]",−512 ± 8,1.4,–,470,–,2,4.8,0.49,–,–,–,–,–,–,–,–,–,–
"CN(C)CCOc1ccc2[nH]c(C(=O)N3CC(CCl)c4c3cc([N+](=O)[O-])c3cc(S(=O)(=O)NCCO)ccc43)cc2c1 (stereo not drawn) [Compound 35, 1-(Chloromethyl)-3-{5-[2-(dimethylamino)ethoxy]indol-2-carbonyl}-N-(2-hydroxyethyl)-5-nitro-1,2-dihydro-3H-benzo[e]indole-7-sulfonamide]",−392 ± 7,9.2,250,5500,90,74.4,115,–,371,~11.7,11.7,61,43,3.8,205 to 210,–,–,–
"CN(C)CCOc1ccc2[nH]c(C(=O)N3CC(CCl)c4c3cc([N+](=O)[O-])c3cc(S(N)(=O)=O)ccc43)cc2c1 (stereo not drawn) [Compound 26, 1-(Chloromethyl)-3-{5-[2-(dimethylamino)ethoxy]indol-2-carbonyl}-5-nitro-1,2-dihydro-3H-benzo[e]indole-7-sulfonamide]",−390 ± 9,6.9,280,4600,330,>30.9,>42,–,–,–,–,–,–,–,–,330,major product of hypoxic metabolism,not detected
